From US8841633B2, “Method and apparatus for detecting pharmaceuticals in a sample” (priority 2009, dated 2014)
Where two headings read alike, the source gives them in different places.

Tests used:
[1] = time-resolved fluorescence of isolated warfarin in PBS; type: physicochemical; conditions: excitation 334 nm
coagulation of the blood = assay: International Normalized Ratio (INR) of patients treated with warfarin; type: in vivo, human
Description: (§1) In connection with the retrieval of the blood sample, the patients respective International Normalized Ratio (INR) were measured, which is a well known type of measure indicative of the coagulation of the blood.

[2] = mean of three ± SEM
Description: The values are given as mean values of three measurements±standard error of the mean.
as §1

[3] = blood sample of patient no. 1 treated with warfarin
[4] = blood sample of patient no. 2 treated with warfarin

CC(=O)CC(c1ccccc1)c1c(O)c2ccccc2oc1=O (stereo not shown) [Warfarin, warfarin]
excited state lifetime τ1 (unresolved) [1]: ≤ 100 ps
INR value (coagulation of the blood; patient no. 1 treated with warfarin): 3.0
INR value (coagulation of the blood; patient no. 2 treated with warfarin): 1.9
Amplitude A1 [2, 3]: 69.4 ± 0.2%
Amplitude A2 [2, 3]: 21.0 ± 0.2%
Amplitude A3 [2, 3]: 9.6 ± 0.1%
Fluorescence lifetime τ1 [2, 3]: 0.10 ± 0.00 ns
Fluorescence lifetime τ2 [2, 3]: 1.50 ± 0.04 ns
Fluorescence lifetime τ3 [2, 3]: 4.05 ± 0.01 ns
Amplitude A1 [2, 4]: 96.0 ± 0.3%
Amplitude A3 [2, 4]: 4.0 ± 0.3%
Fluorescence lifetime τ1 [2, 4]: 0.06 ± 0.00 ns
Fluorescence lifetime τ3 [2, 4]: 2.77 ± 0.02 ns
